Data on three molecules can be found in patent US20210332024A1, “MODULATORS OF PIN1 ACTIVITY AND USES THEREOF” (Yeda Research and Development Co. Ltd., priority 2019, published 2021).

SMILES strings stand for the structures.

One test addresses GST-Pin1 (Homo sapiens, UniProt Q13526). Put plainly: Fluorescence polarization (FP) competition assay. The note with it: FP assay, competition with fluorescein-labeled peptide, 250 nM GST-Pin1; read-out: Ki (apparent). The format is binding. As to the method: Binding affinity to Pin1 was determined using a fluorescence polarization assay to assess competition with an N-terminal fluorescein-labeled peptide (Bth-D-phosThr-Pip-Nal), which was obtained from JPT Peptide Technologies and Proteintech Group. The indicated concentrations of candidate compound were pre-incubated for 12 hours at 4° C. with a solution containing 250 nM glutathione S-transferase (GST)-Pin1, 5 nM of fluorescein-labeled peptide probe, 10 μg/ml bovine serum albumin, 0.01% Tween-20 and 1 mM DTT (dithiothreitol) in a buffer of 10 mM HEPES, 10 mM NaCl and 1% glycerol (pH 7.4). Measurements of FP were performed in black 384-well plates (Corning) using an EnVision™ reader. Apparent Ki values (under the tested conditions) obtained from the FP assay results were derived from the Kenakin Ki equation:
Kenakin Ki=(Lb)(EC50)(Kd)/(Lo)(Ro)+Lb(Ro−Lo+Lb−Kd)
Sittampalam G. S. et al., Eli Lilly & Company and the National Center for Advancing Translational Sciences, 2004].
Covalent labeling of Pin1 was confirmed to translate into enzyme inhibition via a fluorescence polarization (FP) competition assay using a FITC-labeled substrate mimetic peptide inhibitor, as well as a chymotrypsin-coupled PPIase assay, using procedures described in Wei et al. [Nat Med 2015, 21:457-466].
The fluorescent polarization assay was performed in a dose-dependent and time-dependent manner, in order to further characterize the kinetic parameters of Pin1-3 binding to Pin1.
In general terms: Fluorescence polarisation rises when a labelled molecule tumbles more slowly, as on binding a larger partner.

The target in test [1] is T1, Pin1 in PAT8988T cell lysates (Homo sapiens, UniProt Q13526).
T1 construct: endogenous in cells; host or cells: PATU-8988T
Kind of test: Lysate pull-down assay with Pin1-3-DTB. Format: binding. The note with it: 1 μM probe, 1 hour incubation in cell lysates. Here is the method:
(§1) The indicated cells were treated with increasing concentrations of either DMSO, Pin1-3, or Pin1-3-AcA for 5 hours. Cells were harvested by scraping and washed twice with PBS before lysis with 50 mM HEPES (pH 7.4), 1 mM EDTA, 10% glycerol, 1 mM TCEP, 150 mM NaCl, 1 mM EDTA, 0.5% NP-40, and protease inhibitor tablet (Roche cat. #4693159001). After clarifying (14,000 rpm for 15 minutes), samples were treated with the indicated concentrations of Pin1-3-DTB at 4° C. for 1 hour. Lysates were then incubated with streptavidin agarose resin (Thermo Scientific, cat. #20349) for 1.5 hour at 4° C. Beads were washed four times with 500 μl of washing buffer (50 mM HEPES (pH 7.5), 10 mM NaCl, 1 mM EDTA, 10% glycerol), then pelleted by centrifugation and dried. The beads were boiled for 5 minutes at 95° C. in 2×LDS+10% β-mercaptoethanol. Proteins of interest were then assessed via Western blotting using the bolt system (Life Technologies).

The test system of the next test is MDA-MB-231 cells. Kind of test: Cell viability assay (CellTiter-Glo). Format: cell-based. The conditions noted are these: Homo sapiens; cell viability assay with MDA-MB-231 cells. As to the method: MDA-MB-231 cells grew in DMEM medium supplemented with 10% FCS (fetal calf serum), 1% PS (penicillin-streptomycin) and 1% L-glutamine (all from Biological Industries). Exclusion of mycoplasma contamination was monitored and conducted by test with MycoAlert™ kit (Lonza). Cells were trypsinized and counted, and 1000 cells/well were plated in 50 μl of growth medium into 384-well white TC plates (Greiner) using Multidrop™ 384 (Thermo Scientific) Washer Dispenser II. The number of viable cells was monitored using CellTiter-Glo® Luminescent kit (Promega) in accordance with the manufacturer's protocol. Luminescence was measured using luminescence module of PHERAstar™ FS plate reader (BMG Labtech). Data analysis was performed using GeneData 12 analytic software. Assay ready plate preparation: Compounds transferred into black microplates (Greiner 784900) using Labcyte Echo® acoustic dispensing technology. Assay ready plates were then sealed with heat seals. If not used immediately, plates were frozen at −20° C. and held in polypropylene boxes with silica-gel desiccant.
Exemplary Pin1-binding compounds were also tested for non-selective cytotoxicity in a viability assay against IMR90 lung fibroblasts.

A short description of test [2]: Thiol reactivity assay (DTNB). Format: physicochemical. The note with it: 200 μM compound, pH 7.4, 37° C. Here is the method:
50 μM DTNB (dithionitrobenzoic acid) was incubated with 200 μM TCEP (tris(2-carboxytehyl)phosphine) in 20 mM sodium phosphate buffer (pH 7.4) with 150 mM NaCl, for 5 minutes at room temperature, in order to obtain TNB^2− (thionitrobenzoate dianion). 200 μM compounds were subsequently added to the TNB^2−, followed by immediate UV absorbance measurement at 412 nm (at 37° C.). The UV absorbance was acquired every 15 minutes for 7 hours. The assay was performed in a 384-well plate using a Spark™ 10M plate reader (Tecan). Background absorbance of compounds was subtracted by measuring the absorbance at 412 nm of each compound under the same conditions without DTNB. Compounds were measured in triplicates. The data was fitted to a second order reaction equation such that the rate constant k is the slope of ln([A][B0]/[B][A0]), where [A0] and [B0] are the initial concentrations of the compound (200 μM) and TNB^2− (100 μM) respectively, and [A] and [B] are the remaining concentrations as a function of time, as determined from the spectrometric measurement. Linear regression using Prism® software was performed to fit the rate against the first four hours of measurements.
In order to estimate the influence of the various lipophilic moieties on “warhead” reactivity [Flanagan et al., J Med Chem 2014, 57:10072-10079; Lonsdale et al., J Chem Inf Model 2017, 57:3124-3137; Dahal et al., Medchemcomm 2016, 7:864-872], the thiol reactivity of the top ten binders of the second and third generation was assessed using a high-throughput assay previously applied to the entire fragment library, as described in Resnick et al. [J Am Chem Soc 2019, 141:8951-8968]. In brief, the second-order rate constant was evaluated for a model thiol, which reflects trends in general reactivity towards thiol groups.

Another test addresses T2, catalytic domain of Pin1 (Homo sapiens, UniProt Q13526).
T2 construct: The purified catalytic domain of Pin1 was incubated with the fragment library
Kind of test: Intact protein LC/MS labeling of Pin1. Format: binding. The note with it: 2 μM Pin1 with 2 μM test compound for 15 minutes at room temperature. Here is the method: 993 compounds were transferred to a 384-well plate working copy by combining 0.5 μl of 20 mM stock solution of four or five compounds per well. The catalytic domain of Pin1 (2 μM) in 20 mM Tris, 75 mM NaCl, pH 7.5 was incubated with 200 μM for each compound and moderately shaken for 24 hours at 4° C. The reaction was stopped by the addition of formic acid to 0.4% (v/v) final concentration.
Liquid chromatography/mass spectroscopy runs were performed on an Acquity™ UPLC® H-class system (Waters) in positive ion mode using electrospray ionization (ESI). UPLC separation was performed on a C4 column (300 Å, 1.7 μM, […]). The column was held at 40° C., and the autosampler at 10° C. Mobile solution A was 0.1% formic acid in water and mobile phase B was 0.1% formic acid in acetonitrile. Run flow was 0.4 ml/minute; and a gradient of 20% B for 2 minutes, increasing linearly to 60% B for 3 minutes, holding at 60% B for 1.5 minutes, changing to 0% B in 0.1 minute and holding at 0% for 1.4 minutes, was used. Desolvation temperature was 500° C. with a flow rate of 1000 liters/hour. The capillary voltage was 0.69 kV and cone voltage 46 V. Raw data was processed using OpenLynx™ software and deconvoluted using the MaxEnt tool. Labeling assignment was performed as described in Resnick et al. [J Am Chem Soc 2019, 141:8951-8968].
For the screening 2 μl of each of the 448 click products as 50 μM DMSO stocks were transferred into a 384-well plate working plate. 48 μl of catalytic domain of Pin1 (2 μM) in 20 mM Tris (pH 7.5) with 75 mM NaCl were added and moderately shaken and incubated for 15 minutes at room temperature. The reaction was stopped by the addition of formic acid to 0.4% (v/v) final concentration (20 μl). The mixtures were analyzed by liquid chromatography/mass spectroscopy analogously to the electrophile library incubations described herein. Hits were retrospectively analyzed by liquid chromatography/mass spectroscopy (LC-MS) to ensure reaction completion.
For each measured well, processed peaks were searched to match the mass of unlabeled protein or common small adducts of the unlabeled protein, which were found in the control sample or labeled protein. Labeling percentage for a compound was determined as the labeling of a specific compound divided by the overall detected protein species. Peaks whose mass could not be assigned were discarded from the overall labeling calculation. Data was analyzed using a python script for processing the MaxEnt-deconvoluted spectra. Peaks were normalized from ion counts to percentages, where the highest peak is defined as 100%. The unlabeled protein mass is deduced from a reference well that contains just the protein.
The purified catalytic domain of Pin1 was incubated with the fragment library (2 μM protein, 200 μM compound; 24 hours at 4° C.), followed by intact protein liquid chromatography/mass-spectrometry (LC/MS) to identify and quantify compound labeling. FIG. 1 depicts an example of a compound identified in this manner.
Based on the docking predictions, a total of 26 compounds that featured a range of small or bulky aliphatic, arylic, biphenylic or heterocyclic side-chains (structures depicted in FIG. 5), were synthesized or purchased. In order to identify potent binders, the irreversible labeling efficiency of these second-generation compounds was assessed alongside the original screening hits under more stringent conditions, with a 1:1 ratio of protein to compound (2 μM compound; 1 hour at room temperature).
For further optimization of the lipophilic moiety, an alkyne side chain-bearing analog was prepared, which was derivatized with 448 different azides using copper-catalyzed azide-alkyne cycloaddition (CuAAC).

The target in a further test is T3, Pin1 in PATU-8988T cells (Homo sapiens, UniProt Q13526).
T3 construct: endogenous in cells; host or cells: PATU-8988T
Kind of test: Live cell competition assay with Pin1-3-DTB pull-down, PATU-8988T cells. Format: cell-based. The note with it: 0.25 to 1 μM for 5 hours (Pin1-3-AcA 1 μM). As to the method:
as §1
The indicated cells were plated in 10 cm plates with 2.5 million cells per plate in 6 ml of medium. The day after plating, cells were treated with the indicated concentrations of candidate inhibitor for the indicated time points. The cells were then washed two times with cold phosphate buffer saline (1 ml per 10 cm plate) and collected by scraping with a cell scraper. Cells were lysed in 50 mM HEPES (pH 7.4), 1 mM EDTA, 10% glycerol, 1 mM TCEP, 150 mM NaCl, 1 mM EDTA, 0.5% NP-40, and protease inhibitor tablet (Roche)-using 210 μl of cell lysis buffer per 10 cm plate of cells. After clarifying (14,000 rpm for 15 minutes), 9 μl of each lysate sample was combined with […] of 4×LDS+10% β-mercaptoethanol (in a ratio of 3:1), boiled for 5 minutes, and set aside for the input loading control. Then, 200 μl of each lysate sample was incubated with 1 μM of Pin1-3-DTB for 1 hour at 4° C. and processed as described hereinabove for the lysate pull-down assays.
In order to assess cell permeability of Pin1-3 as well as its ability to engage cellular Pin1, PATU-8988T cells were treated with Pin1-3 (0.25 to 1 μM) for 5 hours. After cell lysis, the lysates were incubated with Pin1-3-DTB (1 μM, 1 hour at 4° C.) and probe-labeled targets were pulled down with streptavidin beads.

The subject of test [3] is wild-type 8988T pancreatic cancer cells. Kind of test: Organoid growth in Matrigel, wild-type PATU-8988T. The format is cell-based. The conditions noted are these: 1 μM, 9 days. Here is the method: (§2) As three dimensional (3D) organoid models can reflect in vivo results better than monolayer cell culture [Baker et al., Trends Cancer Res 2016, 2:176-190], the anti-proliferative activity of Pin1-3 in PATU-8988T was further evaluated in wild-type or Pin1-knockout cells grown as organoids in Matrigel™ droplets. Cells were treated for 9 days with Pin1-3 (or Pin1-3-AcA or vehicle as a control), replenishing the compound in media every 3 days.

The subject of test [4] is Pin1-knockout pancreatic cancer cells. Put plainly: Organoid growth in Matrigel, Pin1-knockout PATU-8988T. The format is cell-based. The note with it: 1 μM, 9 days. As to the method:
as §2

For a further test, the target named is T4, Pin1 in IMR32 cells (Homo sapiens, UniProt Q13526).
T4 construct: endogenous in cells; host or cells: IMR32
Kind of test: Live cell competition assay with Pin1-3-DTB pull-down, IMR32 cells. Format: cell-based. The note with it: IMR32 cells, 0.25, 0.5 or 1 μM Pin1-3 or 1 μM Pin1-3-AcA. As to the method: as §1
The indicated cells were plated in 10 cm plates with 2.5 million cells per plate in 6 ml of medium. The day after plating, cells were treated with the indicated concentrations of candidate inhibitor for the indicated time points. The cells were then washed two times with cold phosphate buffer saline (1 ml per 10 cm plate) and collected by scraping with a cell scraper. […]

GST-Pin1, sequence (Q13526 whole entry): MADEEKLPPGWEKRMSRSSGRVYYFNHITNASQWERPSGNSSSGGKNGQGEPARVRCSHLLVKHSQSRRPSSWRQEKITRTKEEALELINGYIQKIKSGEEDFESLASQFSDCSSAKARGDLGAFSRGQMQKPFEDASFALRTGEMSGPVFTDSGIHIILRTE
T2 sequence (Q13526 52-163 limits assumed): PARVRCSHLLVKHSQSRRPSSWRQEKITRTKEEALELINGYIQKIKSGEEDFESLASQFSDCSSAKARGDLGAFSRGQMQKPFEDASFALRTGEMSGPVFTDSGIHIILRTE
T3 sequence (Q13526 whole entry): as the sequence (Q13526 whole entry) above
T4 sequence (Q13526 whole entry): as above
T1 sequence (Q13526 whole entry): as above

With `CC1NC(=O)NC1CCCCCC(=O)NCCOCCOCCOCCC(=O)NCC(C)(C)CN(C(=O)CCl)C1CCS(=O)(=O)C1` (stereo not drawn) [Pin1-3-DTB], the Ki at GST-Pin1 was determined as 38 nM. Besides, the “Pull-down of Pin1 by the probe” value in [1] was “complete pull-down”.

The EC50 is the concentration at which the effect is half-maximal. The low end stands for a more potent agent, the high end for a less potent agent. `O=C(CCl)N(CC1CCCCC1)C1CCS(=O)(=O)C1` (stereo not drawn) [Pin1-2-3, 2-chloro-N-(sulfolan-3-yl)-N-(cyclohexylmethyl)acetamide]: in the test with MDA-MB-231 cells, the 50% effective concentration (EC50) was found to be 7.5 µM. Also, in test [2], the “Reactivity Log k” value is −6.82 and the Reactivity k worked out at 1.53e-07 M⁻¹ s⁻¹. Moreover, the “Labeling [%]” value on catalytic domain of Pin1 worked out at 42%. In addition, the Ki at GST-Pin1 was determined as 46 nM.

`CC(=O)N(CC(C)(C)C)C1CCS(=O)(=O)C1` (stereo not drawn) [Pin1-3-AcA, reference compound]: the “Competition with Pin1-3-DTB for Pin1 binding (pull-down)” value on Pin1 in PATU-8988T cells is recorded as “no competition”. The Organoid growth entry in test [3] and in test [4] was “no effect” throughout. On GST-Pin1, the Ki was greater than 100000 nM. Besides, on Pin1 in IMR32 cells, the “Engagement of Pin1 (competition with Pin1-3-DTB)” value is reported as “does not”.
